Patent US20210356467A1, “SYSTEMS AND METHOD FOR SCREENING SMALL MOLECULES OF INTEREST” (TECHNOLOGY INNOVATION MOMENTUM FUND (ISRAEL) LIMITED …, priority 2018, published 2021)

Assays:
[1] = target: T1, GSPT1 ubiquitylation by CRBN (Homo sapiens, UniProt P15170+Q96SW2); experiment: split-CAT selective growth assay, GSPT1 as ubiquitylation target of CRBN; format: cell-based; parameters: expressed in transfected cells; host or cells: E. coli; conditions: for growth of E. coli that express GSPT1 (ubiquitylation dependent growth, OD600): split-CAT system, Cereblon-E2 (Ubc4) fusion, LB with chloramphenicol, 96 and 384 well plates
Method: (§1) Activity assays with split-CAT system: Vectors containing the split-CAT ubiquitylation system were co-transformed into E. coli and grew in the presence of the relevant antibiotics (e.g. kanamycin and streptomycin). Overnight culture was harvested and the media was replaced with fresh LB containing 8 μg/ml chloramphenicol. The culture was diluted to O.D.600=0.2 and dispended to a 96 or 384 well plate supplemented with potential small molecule drugs or DMSO only. The plate was placed in a shaker/incubator/reader and OD600 was continuously monitored during the growth.
(§2) This procedure was used to read the ubiquitylation dependent growth of IKZF1, IKZF3, CK1a and GSPT1.
(§3) In a first experiment, IKZF1 (Q13422) and GSPT1 (P15170) were analyzed as potential ubiquitylation targets. These targets were coexpressed with C-CAT-Ub and E1 and the Cereblon-E2 (Ubc4) fusion. […] These assays were performed in 96 and 384 well plates.
In a third experiment, GSPT1 was analyzed as a potential ubiquitylation target. It was expressed in-frame upstream to the N-CAT fragment. The target was co-expressed with C-CAT-Ub, wheat E1 and Cereblon-E2 (Ubc4) fusion. […] These assays were performed in 96 and 384 well plates.
Target sequence in this assay (P15170 whole entry, the tested form may be a part): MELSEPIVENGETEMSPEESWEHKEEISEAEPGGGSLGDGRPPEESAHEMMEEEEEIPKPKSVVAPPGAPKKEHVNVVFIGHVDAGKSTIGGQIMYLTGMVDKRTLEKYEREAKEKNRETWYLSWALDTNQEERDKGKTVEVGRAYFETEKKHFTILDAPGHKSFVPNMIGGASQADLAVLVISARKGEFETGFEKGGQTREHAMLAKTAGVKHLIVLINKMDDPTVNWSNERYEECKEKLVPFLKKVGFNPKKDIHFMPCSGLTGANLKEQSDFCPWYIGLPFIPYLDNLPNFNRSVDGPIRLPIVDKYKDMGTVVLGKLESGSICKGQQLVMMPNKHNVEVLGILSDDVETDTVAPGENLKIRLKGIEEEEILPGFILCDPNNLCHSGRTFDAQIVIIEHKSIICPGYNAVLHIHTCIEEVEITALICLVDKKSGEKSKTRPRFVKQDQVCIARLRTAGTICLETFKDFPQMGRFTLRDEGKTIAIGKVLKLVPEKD
Target sequence in this assay (Q96SW2 whole entry, the tested form may be a part): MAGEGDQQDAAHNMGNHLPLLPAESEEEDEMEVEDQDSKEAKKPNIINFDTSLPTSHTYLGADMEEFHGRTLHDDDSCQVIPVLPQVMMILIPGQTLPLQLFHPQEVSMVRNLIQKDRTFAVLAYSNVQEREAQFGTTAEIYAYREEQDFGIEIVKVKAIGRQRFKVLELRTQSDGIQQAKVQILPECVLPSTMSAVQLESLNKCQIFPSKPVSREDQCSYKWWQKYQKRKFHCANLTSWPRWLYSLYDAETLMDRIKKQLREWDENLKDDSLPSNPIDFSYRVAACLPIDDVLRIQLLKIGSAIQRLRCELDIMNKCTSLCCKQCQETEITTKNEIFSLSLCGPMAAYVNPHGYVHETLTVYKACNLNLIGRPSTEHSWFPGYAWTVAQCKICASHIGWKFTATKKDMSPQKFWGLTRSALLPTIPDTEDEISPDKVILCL
Target sequence in this assay (P15731 whole entry partner, the tested form may be a part): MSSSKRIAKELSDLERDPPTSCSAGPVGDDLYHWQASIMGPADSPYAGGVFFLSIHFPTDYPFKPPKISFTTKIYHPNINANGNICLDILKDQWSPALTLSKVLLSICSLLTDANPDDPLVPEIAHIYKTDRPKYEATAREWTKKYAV

[2] = target: T1, GSPT1 ubiquitylation by CRBN; conditions: Matyskiela et al. Nature 535, 252-257 (2016); cited from earlier work
Target sequence in this assay (P15170 whole entry, the tested form may be a part): as the sequence (P15170 whole entry, the tested form may be a part) above
Target sequence in this assay (Q96SW2 whole entry, the tested form may be a part): as the sequence (Q96SW2 whole entry, the tested form may be a part) above
Target sequence in this assay (Q16531 whole entry partner, the tested form may be a part): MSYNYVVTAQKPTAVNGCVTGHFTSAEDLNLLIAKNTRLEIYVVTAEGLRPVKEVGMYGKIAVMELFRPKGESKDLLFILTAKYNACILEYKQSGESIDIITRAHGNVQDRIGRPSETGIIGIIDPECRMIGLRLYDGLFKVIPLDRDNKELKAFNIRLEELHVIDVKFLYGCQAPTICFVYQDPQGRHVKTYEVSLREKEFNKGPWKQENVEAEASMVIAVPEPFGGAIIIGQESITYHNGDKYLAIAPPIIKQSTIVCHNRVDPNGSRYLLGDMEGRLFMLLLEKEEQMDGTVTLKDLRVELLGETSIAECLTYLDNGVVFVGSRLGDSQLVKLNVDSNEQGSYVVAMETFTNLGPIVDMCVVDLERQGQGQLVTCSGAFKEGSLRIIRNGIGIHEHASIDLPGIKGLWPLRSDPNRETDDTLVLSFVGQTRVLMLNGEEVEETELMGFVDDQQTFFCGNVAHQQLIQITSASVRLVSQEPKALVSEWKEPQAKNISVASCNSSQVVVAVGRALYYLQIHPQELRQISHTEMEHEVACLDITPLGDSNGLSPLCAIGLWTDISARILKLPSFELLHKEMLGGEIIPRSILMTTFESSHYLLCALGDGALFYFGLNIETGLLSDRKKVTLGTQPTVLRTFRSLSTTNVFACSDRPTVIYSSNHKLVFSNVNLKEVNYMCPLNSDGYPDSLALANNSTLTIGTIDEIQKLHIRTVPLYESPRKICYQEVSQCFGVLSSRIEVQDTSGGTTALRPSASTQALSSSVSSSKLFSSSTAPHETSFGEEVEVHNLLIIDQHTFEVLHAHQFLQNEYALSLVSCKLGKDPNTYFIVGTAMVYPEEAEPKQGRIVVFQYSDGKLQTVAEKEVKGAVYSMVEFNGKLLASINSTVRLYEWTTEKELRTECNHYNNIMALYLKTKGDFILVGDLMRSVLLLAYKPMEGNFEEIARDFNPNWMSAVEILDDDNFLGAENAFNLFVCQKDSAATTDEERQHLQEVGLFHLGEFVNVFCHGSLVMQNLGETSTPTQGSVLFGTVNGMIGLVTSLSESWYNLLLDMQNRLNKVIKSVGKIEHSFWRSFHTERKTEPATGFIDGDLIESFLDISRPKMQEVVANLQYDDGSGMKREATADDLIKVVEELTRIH

[3] = target: T2, CK1α ubiquitylation by CRBN (Homo sapiens, UniProt P48729+Q96SW2); experiment: split-CAT selective growth assay, CK1a as ubiquitylation target of CRBN; format: cell-based; conditions: split-CAT system, Cereblon-E2 (Ubc4) fusion, chloramphenicol, 96 and 384 well plates
T2 construct: expressed in transfected cells; host or cells: E. coli
Method: as §1, §2
It was expressed in-frame upstream to the N-CAT fragment. […] These assays were performed in 96 and 384 well plates.

[4] = target: T3, IKZF1 ubiquitylation by CRBN (Homo sapiens, UniProt Q13422+Q96SW2); experiment: split-CAT selective growth assay, IKZF1 as ubiquitylation target of CRBN; format: cell-based
T3 construct: expressed in transfected cells; host or cells: E. coli
Method: as §1, §2, §3

T3 sequence (Q13422 whole entry): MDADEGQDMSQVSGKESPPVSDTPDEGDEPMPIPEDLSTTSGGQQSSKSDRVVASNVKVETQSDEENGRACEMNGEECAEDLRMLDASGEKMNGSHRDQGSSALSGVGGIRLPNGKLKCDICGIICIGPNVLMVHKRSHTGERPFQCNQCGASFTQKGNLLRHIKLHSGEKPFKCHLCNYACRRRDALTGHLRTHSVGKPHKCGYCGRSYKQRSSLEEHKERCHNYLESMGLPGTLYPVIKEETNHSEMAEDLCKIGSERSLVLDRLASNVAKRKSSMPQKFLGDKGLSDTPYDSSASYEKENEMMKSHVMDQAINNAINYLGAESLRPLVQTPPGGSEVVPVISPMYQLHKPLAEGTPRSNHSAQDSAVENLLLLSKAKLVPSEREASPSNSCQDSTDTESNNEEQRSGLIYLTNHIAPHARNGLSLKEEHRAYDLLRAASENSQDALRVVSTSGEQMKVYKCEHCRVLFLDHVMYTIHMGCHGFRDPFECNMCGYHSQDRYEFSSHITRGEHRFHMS
T3 sequence (Q96SW2 whole entry): as the sequence (Q96SW2 whole entry, the tested form may be a part) above
T3 sequence (P15731 whole entry partner): as the sequence (P15731 whole entry partner, the tested form may be a part) above
T2 sequence (P48729 whole entry, the tested form may be a part): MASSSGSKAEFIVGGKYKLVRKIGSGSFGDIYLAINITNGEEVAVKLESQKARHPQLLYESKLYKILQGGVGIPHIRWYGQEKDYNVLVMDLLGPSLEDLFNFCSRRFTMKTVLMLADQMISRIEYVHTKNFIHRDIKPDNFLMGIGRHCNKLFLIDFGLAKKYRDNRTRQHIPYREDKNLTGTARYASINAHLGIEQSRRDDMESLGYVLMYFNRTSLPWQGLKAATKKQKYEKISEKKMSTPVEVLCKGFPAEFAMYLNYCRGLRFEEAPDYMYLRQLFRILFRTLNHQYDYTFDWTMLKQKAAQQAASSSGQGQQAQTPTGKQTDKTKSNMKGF
T2 sequence (Q96SW2 whole entry, the tested form may be a part): as the sequence (Q96SW2 whole entry, the tested form may be a part) above
T2 sequence (P15731 whole entry partner, the tested form may be a part): as the sequence (P15731 whole entry partner, the tested form may be a part) above

| growth of E. coli that express GSPT1 (ubiquitylation dependent growth, OD600) [1] | growth of E. coli that express GSPT1 (ubiquitylation dependent growth, OD600) ([1]; listed as TLD) | growth of E. coli that express CK1a (ubiquitylation dependent growth, OD600) [3] | shape of dose response curve (growth), IKZF1 target ([4]; increased concentration of drug, split-CAT selection system) | growth of E. coli that express IKZF1 (ubiquitylation dependent growth, OD600) ([4]; split-CAT system, Cereblon-E2 (Ubc4) fusion, LB with chloramphenicol, 96 and 384 well plates) | Compound | shape of dose response curve (growth), GSPT1 target ([1]; increased concentration of drug, selective conditions with chloramphenicol) | CRBN dependent ubiquitylation of GSPT1 in the presence of the drug [2] |
| --- | --- | --- | --- | --- | --- | --- | --- |
| significantly promoted the growth | – | – | – | – | Cc1ccc(NC(=O)NCc2ccc3c(c2)CN(C2CCC(=O)NC2=O)C3=O)cc1Cl (stereo not shown) [CC-885] | classical bell-shaped activity (growth) curve | undergo CRBN dependent ubiquitylation |
| – | not promoted | significantly promoted the growth | optimum characteristic response | significantly promoted the growth | O=C1CCC(N2C(=O)c3ccccc3C2=O)C(=O)N1 (stereo not shown) [Thalidomide] | – | – |
